Measured values reported in ChEMBL document CHEMBL4665751, “Discovery of Clinical Candidate (5-(3-(4-Chlorophenoxy)prop-1-yn-1-yl)-3-hydroxypicolinoyl)glycine, an Orally Bioavailable Prolyl Hydroxylase Inhibitor for the Treatment of Anemia” (J Med Chem, 2020).
The source made the active and inactive calls. The calls are words filed in the database; no cut-off is given here.

Legend:
[1] = Apparent volume of distribution in Beagle dog at 2 mg/kg, ig by LC-MS/MS analysis; assay type: ADME, organism-based, Canis lupus familiaris; settings: in vivo, po
[2] = Genotoxicity in Salmonella typhimurium TA100 at 62.5 to 1000 ug incubated for 48 to 50 hrs in absence of S9 fraction by Ames test; assay type: toxicity, Salmonella enterica subsp. enterica serovar Typhimurium; settings: in vivo; dose 62.5-1000 µg, time 48-50 hrs
[3] = Acute toxicity in Sprague-Dawley rat assessed as change in ratio of brain to body weight at 15 to 200 mg/kg, po administered every alternate days for 2 weeks measured on day 14; assay type: organism-based; settings: in vivo, 336 h, dose 15-200 mg/kg, time 14 day
[4] = Genotoxicity in Salmonella typhimurium TA98 at 62.5 to 1000 ug incubated for 48 to 50 hrs in presence of S9 fraction by Ames test; assay type: toxicity, subcellular, Salmonella enterica subsp. enterica serovar Typhimurium; settings: dose 62.5-1000 µg, time 48-50 hrs
[5] = Hepatotoxicity in male Sprague-Dawley rat assessed as change in aspartate aminotransferase level in blood at 200 mg/kg, po administered every alternate days for 2 weeks measured on day 14; assay type: toxicity, organism-based; settings: in vivo, 336 h, time 14 day
[6] = MRT (0 to infinity) in Beagle dog at 2 mg/kg, ig by LC-MS/MS analysis; assay type: ADME, organism-based, Canis lupus familiaris; settings: in vivo, po
[7] = test system: Mus musculus; assay: Antianemic activity in cisplatin-induced C57BL/6 mouse anemia model assessed as increase in haemoglobin level administered orally every other day for 1 month; assay type: functional, organism-based; settings: dose mg/kg 10-25, time 1.0 months
[8] = Hepatotoxicity in male Sprague-Dawley rat assessed as change in alanine aminotransferase level in blood at 15 to 200 mg/kg, po administered every alternate days for 2 weeks measured on day 14; assay type: toxicity, organism-based; settings: in vivo, 336 h, dose 15-200 mg/kg, time 14 day
[9] = Clearance in Beagle dog at 2 mg/kg, ig by LC-MS/MS analysis; assay type: ADME, organism-based, Canis lupus familiaris; settings: in vivo, po
[10] = AUC (0 to t) in Sprague-Dawley rat at 1 mg/kg, iv by LC-MS/MS analysis; assay type: ADME, organism-based; parameters: dose 1 mg/kg; settings: in vivo
[11] = test system: HUVEC; assay: Cytotoxicity against human HUVEC cells assessed as reduction in cell viability at 10 to 100 uM incubated for 72 hrs by MTT assay; assay type: cell-based; settings: dose 10-100 µM
[12] = Nephrotoxicity in Sprague-Dawley rat assessed as change in urea level in blood at 15 to 200 mg/kg, po administered every alternate days for 2 weeks measured on day 14; assay type: toxicity, organism-based; settings: in vivo, 336 h, dose 15-200 mg/kg, time 14 day
[13] = Half-life in Sprague-Dawley rat at 2 mg/kg, ig by LC-MS/MS analysis; assay type: ADME, organism-based; settings: in vivo, po
[14] = Nephrotoxicity in Sprague-Dawley rat assessed as change in creatinine level in blood at 15 to 200 mg/kg, po administered every alternate days for 2 weeks measured on day 14; assay type: toxicity, organism-based; settings: in vivo, 336 h, dose 15-200 mg/kg, time 14 day
[15] = Half-life in human L02 cells at 100 uM incubated up to 120 mins by LC-MS/MS analysis; assay type: ADME, cell-based
[16] = Acute toxicity in male Sprague-Dawley rat assessed as change in ratio of testis to body weight at 15 to 200 mg/kg, po administered every alternate days for 2 weeks measured on day 14; assay type: organism-based; settings: in vivo, 336 h, dose 15-200 mg/kg, time 14 day
[17] = Tmax in Sprague-Dawley rat at 2 mg/kg, ig by LC-MS/MS analysis; assay type: ADME, organism-based; settings: in vivo, po
[18] = Acute toxicity in male Sprague-Dawley rat assessed as increase in weight of spleen to body weight at 15 to 200 mg/kg, po administered every alternate days for 2 weeks measured on day 14; assay type: organism-based; settings: in vivo, 336 h, dose 15-200 mg/kg, time 14 day
[19] = organism: Homo sapiens; assay: Selectivity index, ratio of IC50 for KDM4A (unknown origin) in presence of peptide substrate incubated for 30 mins by alpha screen assay to IC50 for PHD2 (unknown origin) by O-phenyl enediamine(OPD) based fluorescence assay
[20] = Intrinsic clearance in human liver microsome at 1 uM preincubated for 5 mins followed by NADPH addition measured up to 120 mins by LC-MS/MS analysis; assay type: ADME; settings: microsomes, 2 h, time <=125 min
[21] = MRT (0 to infinity) in Sprague-Dawley rat at 1 mg/kg, iv by LC-MS/MS analysis; assay type: ADME, organism-based; settings: in vivo
[22] = Tmax in Beagle dog at 2 mg/kg, ig by LC-MS/MS analysis; assay type: ADME, organism-based, Canis lupus familiaris; settings: in vivo, po
[23] = Clearance in Beagle dog at 0.5 mg/kg, iv by LC-MS/MS analysis; assay type: ADME, organism-based, Canis lupus familiaris; settings: in vivo
[24] = test system: Mus musculus; assay: In vivo inhibition of PHD2 in C57BL/6 mouse assessed as upregulation of EPO plasma level by measuring EPO level at 15 mg/kg, po measured after 4 hrs by ELISA; assay type: functional, organism-based
[25] = Acute toxicity in Sprague-Dawley rat assessed as change in ratio of kidney to body weight at 15 to 200 mg/kg, po administered every alternate days for 2 weeks measured on day 14; assay type: organism-based; settings: in vivo, 336 h, dose 15-200 mg/kg, time 14 day
[26] = Half-life in human liver microsome at 1 uM preincubated for 5 mins followed by NADPH addition measured up to 120 mins by LC-MS/MS analysis; assay type: ADME; settings: liver microsomes, time <=125 min
[27] = MRT (0 to infinity) in Beagle dog at 0.5 mg/kg, iv by LC-MS/MS analysis; assay type: ADME, organism-based, Canis lupus familiaris; settings: in vivo
[28] = target: Cytochrome P450 3A4 (Homo sapiens, UniProt P08684); assay: Inhibition of CYP3A4 (unknown origin) using midazolam as substrate preincubated for 5 mins followed by addition of NADPH measured after 20 mins by LC-MS/MS analysis; assay type: ADME
Chain of Cytochrome P450 3A4 (P08684 whole entry): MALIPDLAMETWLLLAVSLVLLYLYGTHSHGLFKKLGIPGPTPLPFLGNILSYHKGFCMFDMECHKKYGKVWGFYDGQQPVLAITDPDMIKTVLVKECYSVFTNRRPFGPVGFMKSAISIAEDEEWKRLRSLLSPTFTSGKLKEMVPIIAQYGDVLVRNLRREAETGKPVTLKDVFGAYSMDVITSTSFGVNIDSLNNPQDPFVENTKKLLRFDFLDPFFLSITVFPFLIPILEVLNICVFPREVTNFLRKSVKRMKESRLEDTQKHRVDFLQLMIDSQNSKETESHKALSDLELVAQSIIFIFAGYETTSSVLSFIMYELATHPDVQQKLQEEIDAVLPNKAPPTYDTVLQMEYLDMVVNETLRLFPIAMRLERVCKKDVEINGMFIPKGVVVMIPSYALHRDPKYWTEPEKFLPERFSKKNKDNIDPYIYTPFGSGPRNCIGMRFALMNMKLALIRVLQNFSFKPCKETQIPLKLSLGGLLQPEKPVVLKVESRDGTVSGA

[29] = Nephrotoxicity in male Sprague-Dawley rat assessed as effect on total protein level in blood at 15 to 200 mg/kg, iv or po administered every alternate days for 2 weeks measured on day 14; assay type: toxicity, organism-based; settings: in vivo, 336 h, dose 15-200 mg/kg, time 14 day
[30] = target: T1, Cytochrome P450 1A2 (Homo sapiens, UniProt P05177); assay: Inhibition of CYP1A2 (unknown origin) using phenacetin as substrate preincubated for 5 mins followed by addition of NADPH measured after 20 mins by LC-MS/MS analysis; assay type: ADME
T1 sequence (P05177 whole entry): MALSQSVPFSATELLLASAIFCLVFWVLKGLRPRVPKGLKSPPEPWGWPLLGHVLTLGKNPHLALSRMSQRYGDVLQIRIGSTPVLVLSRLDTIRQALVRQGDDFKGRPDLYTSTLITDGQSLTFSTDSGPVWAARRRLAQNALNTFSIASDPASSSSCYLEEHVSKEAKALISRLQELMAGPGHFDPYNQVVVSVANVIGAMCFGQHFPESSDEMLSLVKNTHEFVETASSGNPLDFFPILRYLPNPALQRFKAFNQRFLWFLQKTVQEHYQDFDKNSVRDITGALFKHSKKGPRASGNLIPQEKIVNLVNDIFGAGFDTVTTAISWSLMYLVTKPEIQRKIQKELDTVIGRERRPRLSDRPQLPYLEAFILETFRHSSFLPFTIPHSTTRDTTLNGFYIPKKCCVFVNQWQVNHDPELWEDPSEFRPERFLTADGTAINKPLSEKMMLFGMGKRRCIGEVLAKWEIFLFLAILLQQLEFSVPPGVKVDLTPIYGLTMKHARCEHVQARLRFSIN

[31] = Half-life in monkey liver microsome at 1 uM preincubated for 5 mins followed by NADPH addition measured up to 120 mins by LC-MS/MS analysis; assay type: ADME, Macaca mulatta; settings: rhesus monkey, liver microsomes, time <=125 min

SMILES: O=C(O)CNC(=O)c1ncc(C#CCOc2ccc(Cl)cc2)cc1O [DDO-3055]
- Vz [1]: 8.417 L/kg
- Activity [2]: Non-Toxic
- Activity [3]: Non-Toxic
- Activity [4]: Non-Toxic
- Activity [5]: Toxic
- MRT inf [6]: 4.69 h
- Activity [7]: Active
- Activity [8]: Non-Toxic
- CL/F [9]: 25.5 mL/min/kg
- AUC(0-t) [10]: 4710 ng·h/mL
- Activity [11]: Non-Toxic
- Activity [12]: Non-Toxic
- half-life [13]: 6.44 h
- Activity [14]: Non-Toxic
- half-life at 100 µM [15]: 17.7 h
- Activity [16]: Non-Toxic
- Tmax [17]: 0.63 h
- Activity [18]: Toxic
- Ratio IC50 [19]: 1560
- CLH [20]: < 0.01 mL/min/kg
- MRT inf [21]: 3.44 h
- Tmax [22]: 0.67 h
- clearance [23]: 13.2 mL/min/kg
- inhibition [24]: Active
- Activity [25]: Non-Toxic
- half-life at 1 µM [26]: > 2.32 h
- MRT inf [27]: 2.27 h
- IC50 [28]: > 30 µM
- Activity [29]: Non-Toxic
- IC50 [30]: > 30 µM
- half-life at 1 µM [31]: > 1.65 h
